Legend:
[1] = target: T1, PheA1A2 (PheA2A1, phenol monooxygenase) (Rhodococcus rhodochrous, UniProt A0ABY1MEQ0); test: HPLC of substrate depletion, product by LC-MS; type: cell-based; conditions: whole E. coli BL21(DE3) cells expressing PheA1A2, OD600 15, 100 mM PBS, 0.5 mM 4-chlorophenol; ortho hydroxylation
T1 construct: gene SAMN02745947_03917; both components co-expressed from pET28a in E. coli BL21(DE3), whole cells; with Phenol 2-monooxygenase, flavin reductase component

[2] = target: T1, PheA1A2 (PheA2A1, phenol monooxygenase); test: HPLC of substrate depletion; type: cell-based; conditions: whole E. coli BL21(DE3) cells expressing PheA1A2; ortho hydroxylation

T1 sequence (A0ABY1MEQ0 1-537): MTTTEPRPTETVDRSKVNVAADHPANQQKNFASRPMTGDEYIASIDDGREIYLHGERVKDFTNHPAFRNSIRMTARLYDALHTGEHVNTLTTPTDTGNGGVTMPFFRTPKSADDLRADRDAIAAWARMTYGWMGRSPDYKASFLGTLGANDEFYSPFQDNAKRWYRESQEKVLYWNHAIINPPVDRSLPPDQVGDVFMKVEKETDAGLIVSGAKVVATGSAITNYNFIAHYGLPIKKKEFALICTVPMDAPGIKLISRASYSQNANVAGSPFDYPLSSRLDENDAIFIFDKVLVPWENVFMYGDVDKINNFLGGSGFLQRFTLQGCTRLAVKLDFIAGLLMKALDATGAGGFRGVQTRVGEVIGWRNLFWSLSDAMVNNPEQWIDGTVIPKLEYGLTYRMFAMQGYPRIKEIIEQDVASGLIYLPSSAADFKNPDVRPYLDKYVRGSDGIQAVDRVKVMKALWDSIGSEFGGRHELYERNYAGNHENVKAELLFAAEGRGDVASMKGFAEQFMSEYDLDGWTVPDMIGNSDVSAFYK

## Oc1ccc(Cl)cc1 [4-chlorophenol]
[1]
  HPLC of substrate depletion, product by LC-MS: The ortho hydroxylation enzyme activity to phenol, 4-chlorophenol

## Oc1ccccc1 [phenol]
[2]
  HPLC of substrate depletion: The ortho hydroxylation enzyme activity to phenol, 4-chlorophenol

— publication PMC10601206, “Adaptive laboratory evolution of Rhodococcus rhodochrous DSM6263 for chlorophenol degradation under hypersaline condition” (Microbial Cell Factories, 2023)
